Data as given in patent publication US11028090B2 (Dong Wha Pharm. Co., Ltd., priority 2017, dated 2021).
Where two headings read alike, the source gives them in different places.

Assays:
[1] = target: BRD4 (BD1+BD2) bromodomain (Homo sapiens (Human), UniProt O60885); assay: BRD4 binding inhibition (AlphaScreen, GST-BRD4 vs tetraacetylated histone H4 peptide)
How it was run: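 GST-BRD4 (BD1+BD2) and biotinylated tetraacetyl-histone H4 peptide, each at 100 nM in HEPES pH 7.4 buffer with BSA and DTT, were combined with compound. Glutathione acceptor and streptavidin donor beads were added, then incubated 30 min at room temperature in the dark. Read-out was AlphaScreen signal.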

[2] = tested on: acute myelogenous leukemia cells (MV-4-11 cells); assay: Cytotoxicity to acute myelogenous leukemia cells (MV-4-11 cells), CCK-8; conditions: Homo sapiens, MV4-11, 72 h
Procedure: The following experiment was performed to evaluate the cytotoxicity of [1,2,4]triazolo[4,3-a]quinoxaline derivative according to the present invention to acute myelogenous leukemia cells (MV-4-11 cells).
Acute myelogenous leukemia cells (MV-4-11 cells) were distributed in a 96 well plate at the density of 5×10^3 cells/well. The plated cells were treated with the compounds of the present invention dissolved in DMSO at the different concentrations ranging from 0.01 μM to 10 μM. 72 hours later, the activities of the compounds were determined using CCK-8 reagent.

[3] = GST-BRD4 (BD1+BD2) / biotinylated acetyl-histone H4 (Lys5,8,12,16) peptide, read-out: IC50, BRD4 binding inhibition
[4] = GST-BRD4 (BD1+BD2) vs biotinylated acetyl-histone H4 peptide, AlphaScreen, read-out: BRD4 IC50
[5] = read-out: IC50, cytotoxicity against acute myelogenous leukemia cells
[6] = read-out: MV-4-11 Cytotoxicity IC50

Row | IC50 [1, 3] [µM] | IC50 [1, 4] [µM] | Compound | IC50 [2, 5] [µM] | IC50 [2, 6] [µM]
1 | ≤ 0.05 | 0.014 | CCC(CC)C(=O)NCCCCNc1nc2cc(OCCOC)ccc2n2c(C)nnc12 [Example 381, 2-ethyl-N-{4-[7-(2-methoxy-ethoxy)-1-methyl-[1,2,4]triazolo[4,3-a]quinoxaline-4-ylamino]-butyl}-butyramide] | ≤ 0.2 | 0.2
2 | ≤ 0.01 | 0.005 | COCCOc1ccc2c(c1)nc(NCCCCNC(=O)CC(C)(C)C)c1nnc(C)n12 [Example 382, N-{4-[7-(2-methoxy-ethoxy)-1-methyl-[1,2,4]triazolo[4,3-a]quinoxaline-4-ylamino]-butyl}-3,3-dimethyl-butyramide] |  | 0.84
3 | ≤ 0.01 | 0.003 | COCCOc1ccc2c(c1)nc(NCCCCNC(=O)CCC(C)C)c1nnc(C)n12 [Example 383, 4-methyl-pentanoic acid{4-[7-(2-methoxy-ethoxy)-1-methyl-[1,2,4]triazolo[4,3-a]quinoxaline-4-ylamino]-butyl}-amide] | ≤ 0.2 | 0.073
4 | ≤ 0.01 | 0.006 | COCCOc1ccc2c(c1)nc(NCCCCNC(=O)[C@H](O)C(C)C)c1nnc(C)n12 [Example 388, 2-(R)-hydroxy-N-{4-[7-(2-methoxy-ethoxy)-1-methyl-[1,2,4]triazolo[4,3-a]quinoxaline-4-ylamino]-butyl}-3-methyl-butyramide] | ≤ 0.2 | 0.055
5 | ≤ 0.01 | 0.002 | COCCOc1ccc2c(c1)nc(NCCCCNC(=O)[C@@H](O)C(C)C)c1nnc(C)n12 [Example 389, 2-(S)-hydroxy-N-{4-[7-(2-methoxy-ethoxy)-1-methyl-[1,2,4]triazolo[4,3-a]quinoxaline-4-ylamino]-butyl}-3-methyl-butyramide] | ≤ 0.2 | 0.079
6 | ≤ 0.01 | 0.005 | CCC(F)(F)C(=O)NCCCCNc1nc2cc(OCCOC)ccc2n2c(C)nnc12 [Example 391, 2,2-difluoro-N-{4-[7-(2-methoxy-ethoxy)-1-methyl-[1,2,4]triazolo[4,3-a]quinoxaline-4-ylamino]-butyl}-butyramide] | ≤ 0.2 | 0.2
7 | ≤ 0.01 | 0.003 | COCCOc1ccc2c(c1)nc(NCCCCNC(=O)CCC1CCCC1)c1nnc(C)n12 [Example 393, 3-cyclopentyl-N-{4-[7-(2-methoxy-ethoxy)-1-methyl-[1,2,4]triazolo[4,3-a]quinoxaline-4-ylamino]-butyl}-propionamide] | ≤ 0.2 | 0.17
8 | ≤ 0.01 | 0.007 | COCCOc1ccc2c(c1)nc(NCCCCNC(=O)C(NC(=O)OC(C)(C)C)C(C)C)c1nnc(C)n12 (centres unmarked) [Example 396, (1-{4-[7-(2-methoxy-ethoxy)-1-methyl-[1,2,4]triazolo[4,3-a]quinoxaline-4-ylamino]-butylcarbamoyl}-2-methyl-propyl)-carbamic acid-tert-butylester] |  | 0.76
9 | ≤ 0.01 | 0.001 | COCCOc1ccc2c(c1)nc(NCCCCNC(=O)[C@@H](NC(=O)OCC(C)C)C(C)C)c1nnc(C)n12 [Example 398, (S)-(1-{4-[7-(2-methoxy-ethoxy)-1-methyl-[1,2,4]triazolo[4,3-a]quinoxaline-4-ylamino]-butylcarbamoyl}-2-methyl-propyl)-carbamic acid isobutylester] |  | 0.79
10 | ≤ 0.01 | 0.001 | CCCOC(=O)N[C@H](C(=O)NCCCCNc1nc2cc(OCCOC)ccc2n2c(C)nnc12)C(C)C [Example 399, (S)-(1-{4-[7-(2-methoxy-ethoxy)-1-methyl-[1,2,4]triazolo[4,3-a]quinoxaline-4-ylamino]-butylcarbamoyl}-2-methyl-propyl)-carbamic acid propylester] |  | 0.57
11 | ≤ 0.01 | 0.001 | COCCOc1ccc2c(c1)nc(NCCCCNC(=O)[C@@H](NC(=O)OC(C)C)C(C)C)c1nnc(C)n12 [Example 400, (S)-(1-{4-[7-(2-methoxy-ethoxy)-1-methyl-[1,2,4]triazolo[4,3-a]quinoxaline-4-ylamino]-butylcarbamoyl}-2-methyl-propyl)-carbamic acid isopropylester] |  | 0.2
12 | ≤ 0.05 | 0.014 | COCCOc1ccc2c(c1)nc(NCCCCNC(=O)Cc1cccs1)c1nnc(C)n12 [Example 406, N-{4-[7-(2-methoxy-ethoxy)-1-methyl-[1,2,4]triazolo[4,3-a]quinoxaline-4-ylamino]-butyl}-2-thiophene-2-yl-acetamide] | ≤ 0.2 | 0.019
13 | ≤ 0.01 | 0.007 | COCCOc1ccc2c(c1)nc(NCCCCNC(=O)Cc1ccco1)c1nnc(C)n12 [Example 407, 2-furan-2-yl-N-{4-[7-(2-methoxy-ethoxy)-1-methyl-[1,2,4]triazolo[4,3-a]quinoxaline-4-ylamino]-butyl}-acetamide] |  | 0.18
14 | ≤ 0.05 | 0.013 | COCCOc1ccc2c(c1)nc(NCCCCNC(=O)c1ccccc1)c1nnc(C)n12 [Example 408, N-{4-[7-(2-methoxy-ethoxy)-1-methyl-[1,2,4]triazolo[4,3-a]quinoxaline-4-ylamino]-butyl}-benzamide] |  | 0.62
15 | ≤ 0.01 | 0.009 | COCCOc1ccc2c(c1)nc(NCCCCNC(=O)c1ccccc1F)c1nnc(C)n12 [Example 409, 2-fluoro-N-{4-[7-(2-methoxy-ethoxy)-1-methyl-[1,2,4]triazolo[4,3-a]quinoxaline-4-ylamino]-butyl}-benzamide] |  | 0.38
16 | ≤ 0.05 | 0.012 | COCCOc1ccc2c(c1)nc(NCCCCNC(=O)c1cccc(F)c1)c1nnc(C)n12 [Example 410, 3-fluoro-N-{4-[7-(2-methoxy-ethoxy)-1-methyl-[1,2,4]triazolo[4,3-a]quinoxaline-4-ylamino]-butyl}-benzamide] |  | 0.79
17 | ≤ 0.05 | 0.019 | COCCOc1ccc2c(c1)nc(NCCCCNC(=O)c1ccccc1Cl)c1nnc(C)n12 [Example 411, 2-chloro-N-{4-[7-(2-methoxy-ethoxy)-1-methyl-[1,2,4]triazolo[4,3-a]quinoxaline-4-ylamino]-butyl}-benzamide] | ≤ 0.2 | 0.15
18 | ≤ 0.01 |  | COCCOc1ccc2c(c1)nc(NCCCCNC(=O)c1cccc(Cl)c1Cl)c1nnc(C)n12 [Example 413, 2,3-dichloro-N-{4-[7-(2-methoxy-ethoxy)-1-methyl-[1,2,4]triazolo[4,3-a]quinoxaline-4-ylamino]-butyl}-benzamide] |  | 0.19
19 | ≤ 0.05 | 0.016 | COCCOc1ccc2c(c1)nc(NCCCCNC(=O)c1ccccc1OC)c1nnc(C)n12 [Example 414, 2-methoxy-N-{4-[7-(2-methoxy-ethoxy)-1-methyl-[1,2,4]triazolo[4,3-a]quinoxaline-4-ylamino]-butyl}-benzamide] |  | 0.63
20 | ≤ 0.01 | 0.002 | COCCOc1ccc2c(c1)nc(NCCCCNC(=O)Cc1ccccc1)c1nnc(C)n12 [Example 420, N-{4-[7-(2-methoxy-ethoxy)-1-methyl-[1,2,4]triazolo[4,3-a]quinoxaline-4-ylamino]-butyl}-2-phenyl-acetamide] | ≤ 0.2 | 0.18
